Values quoted from earlier work in patent publication US20080248135A1, “Combination Therapy for Otitis with Antiseptic and pH Adjustment” (Collegium Pharmaceutical, Inc., priority 2006, published 2008).

What was measured:
[1] = test system: P. aeruginosa; conditions: background statement
[2] = test system: Aspergillus; conditions: antifungal creams; background statement

CC1(C)S[C@@H]2[C@H](NC(=O)[C@H](N)c3ccccc3)C(=O)N2[C@H]1C(=O)O [ampicillin]
Activity against P. aeruginosa [1]: no activity

N[C@@H](C(=O)N[C@@H]1C(=O)N2C(C(=O)O)=C(Cl)CS[C@H]12)c1ccccc1 [cefaclor]
Activity against P. aeruginosa [1]: no activity

CC1=C(C(=O)O)N2C(=O)[C@@H](NC(=O)[C@H](N)c3ccccc3)[C@H]2SC1 [cephalexin]
Activity against P. aeruginosa [1]: no activity

Clc1ccccc1C(c1ccccc1)(c1ccccc1)n1ccnc1 [clotrimazole]
Effectiveness against Aspergillus [2]: not effective

II [iodine, elemental iodine (I2)]
Saturating concentration of iodine in water: ca. 0.0013 M

C[C@@H]1[C@H](O)[C@@H](C)/C=C/C=C/CC/C=C/C=C/C=C/C=C/C(O[C@H]2O[C@H](C)[C@@H](O)[C@H](N)[C@@H]2O)CC2O[C@](O)(CC(O)C(O)CCC(O)CC(O)CC(O)CC(=O)O[C@H]1C)CC(O)C2C(=O)O (stereo partly shown) [nystatin]
Effectiveness against Aspergillus [2]: not effective

trimethoprim-sulfamethoxazole
Activity against P. aeruginosa [1]: no activity
